# Measurements published in US20230094545A1, “S1P RECEPTOR MODULATORS” (AKAAL PHARMA PTY LTD, priority 2020, published 2023).
# Like-named read-outs stand apart in the source and are kept apart here.
# Columns and labels:
# [1] = tested on: atopic dermatitis and psoriasis disease models; test: Atopic dermatitis and psoriasis disease models, cytokines; conditions: in vivo
# [2] = Systemic exposure and lymphopenia in mice; format: in vivo
# [3] = tested on: RAW 264.7 cell line (monocyte cells); test: Heat-killed P. acne challenged RAW 264.7 cells, cytokines by ELISA; format: cell-based; conditions: Mus musculus, RAW264.7, compared to untreated
# Method: RAW 264.7 cell line (monocyte cells) challenged with the heat-killed Propionibacterium acne (P. acne) and incubated for 1 hour and were divided into four groups as G1=not challenged with P. acne, G2=challenged with P. acne but untreated, G3=challenged with P. acne and treated with 1 μM of compound of formula I, G3=challenged with P. acne and treated with 3 μM of compound of formula I. The ELISA method was used to analyze the effect of compound of formula I on the secretion of proinflammatory cytokines the TNFα and IL6. Compound of formula I inhibits the cytokines in P. acne challenged monocyte cells. The results are shown in below FIG. 6. The compound of formula I inhibit the secretion of TNFα@1 μM=˜42% and @3 μM=˜69% and IL6@1 μM=˜27% and @3 μM=˜42% compared to untreated in P. acne challenged cell line.
# arthritis pain = test: Topical treatment of arthritis patients with pain; format: in vivo, human; conditions: for numerical rating scale for pain scoring (NRS): baseline Day 1 7.1±1.38
# Method: (§1) Fifteen arthritis patients who were experiencing pain were treated with the compound of Formula I@60 mg daily dosing as a topical treatment for seven consecutive days. […] The subjects blood parameters, urine alysis, vital signs, physical examination, ECG were normal.
# (§2) The numerical rating scale for pain scoring (NRS) in a compound of Formula I treated group […] reduced from 7.1±1.38 (Day 1; baseline) to 5.8±2.12 (Day 3) and 4.8±2.72 (Day 7). The mean NRS score change from baseline was −1.3±1.54 (Day 3) and −2.3±2.06 (Day 7) points in arthritis participants treated with compound of Formula I. In osteoarthritis participants, the mean change in pain score from Day 1 to Day 7 was of −1.9±1.46 and −1.9±1.57 for pain felt and worst pain felt in 24 hours, respectively. […] The systemic exposure on day 7 ranged from 0.42 ng/mL to 2.44 ng/mL (average 0.79 ng/mL).
# [4] = Topical treatment of arthritis patients with pain; format: in vivo, human; conditions: human, in vivo, topical, 60 mg daily, day 7, 60 mg daily topical
# Method: as §1, §2
# [5] = Topical treatment of atopic dermatitis patients; format: in vivo, human; conditions: human, in vivo; by week 3, 60 mg daily topical; read-out: systemic exposure
# Method: (§3) Atopic dermatitis patients were treated with the compound of Formula I@60 mg daily dosing as topical treatment for 28 consecutive days.
# atopic dermatitis = test: Topical treatment of atopic dermatitis patients; format: in vivo, human
# Method: as §3
# [6] = tested on: microglial (BV2 cells) and macrophages (Raw cells); test: LPS-treated microglial and macrophage cells, cytokines by ELISA; format: cell-based; conditions: 1-5 μg/mL, 4 hrs prior to LPS 500 ng/mL, p<0.05
# Method: Treatment of a compound of formula (I) (1-5 μg/mL) to the cultured microglial (BV2 cells) and macrophages (Raw cells) was made 4 hrs prior to treatment with lipopolysaccharide (LPS) at 500 ng/mL. After 16-18 hr of drug treatment the cytokines (TNFα, IL1β and IL6) were measured in culture media by ELISA and expression levels of cyclooxygenase2 (Cox-2), inducible […] (iNOS) or beta actin were analysed in cell homogenates by western analysis.
# [7] = tested on: burn wound and scratch wounds; test: Topical formulation in wound patients (case reports); format: in vivo, human
# Method: A patient presented with a second degree burn wound on the inner surface of their middle finger of their left hand, suffering from swelling, blistering and pain at the site of injury. A topical gel formulation of compound of formula (I) was applied topically to the site of injury.
# A patient presented with a scratch wounds on hands while cleaning gutters. These become inflamed and painful in 3 hours.
# S1P1 receptor = S1P1 receptor (Homo sapiens, UniProt P21453); test: S1P1 receptor degradation (activity v/s degradation margin); format: cell-based
# [8] = tested on: kainic acid induced seizures; test: Kainic acid model of epilepsy; format: in vivo, Sprague Dawley rats
# Method: In an animal model of epilepsy, Sprague Dawley rats (n=6) were treated with the compound of Formula I or vehicle, dosed 1 hour prior to kainic acid administration (10 mg/kg, IP). […] There was significant reduction in seizures (70%, p<0.005) in the compound of formula (I) treated group. The changes observed in the hippocampal region of control animals included, minimal to mild neuronal cell death which included vaculations in neuronal cells particularly at C3 and C1 regions proving the compound of Formula I is neuroprotective.
# Incision mediated pain = test: Deep incision wound mediated pain, topical treatment; format: in vivo, Sprague Dawley Rats
# From the text: The total 24 female Sprague Dawley Rats were assigned to two test and two control groups having 6 animals per group. Animals from G1 and G2 received CFA on Day 1 by intraplanter route followed application of test item (0 and 3% respectively), onto injection site from Day 1 to Day 7. Group G3 and G4 animals received deep incision through the skin and fascia of the plantar foot followed by application of test item (0 and 3% respectively), onto the incision site from Day 1 to Day 7. Clinical signs, body weight and pain assessment parameters like Von Frey estimation and FOB was evaluated and the pain reduction results at Day 7 are summarized in Table 7.
# [9] = read-out: inhibition of secretion of IL6
# [10] = read-out: inhibition of secretion of TNFα
# Chain of S1P1 receptor (P21453 whole entry): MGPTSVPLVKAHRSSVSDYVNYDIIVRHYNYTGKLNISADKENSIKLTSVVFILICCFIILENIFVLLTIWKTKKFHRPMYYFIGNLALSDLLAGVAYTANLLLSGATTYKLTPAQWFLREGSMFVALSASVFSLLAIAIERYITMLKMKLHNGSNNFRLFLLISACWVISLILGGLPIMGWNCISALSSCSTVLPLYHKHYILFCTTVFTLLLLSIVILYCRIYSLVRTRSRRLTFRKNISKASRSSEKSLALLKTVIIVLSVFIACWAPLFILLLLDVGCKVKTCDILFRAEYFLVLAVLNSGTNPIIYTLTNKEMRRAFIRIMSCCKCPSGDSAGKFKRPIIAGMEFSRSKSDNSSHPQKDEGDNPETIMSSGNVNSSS
smiles,measurement,setting,value
CCCOc1ccc(-c2nc(-c3ccc4oc(C(N)(CO)CO)cc4c3)no2)cc1Cl [compound of formula (I)],"cytokines IL17, IL23, IL2",[1],"downregulates the cytokines IL17, IL23, IL2"
same,measured lymphopenia,"[2]; 0.3 mg/kg, 6 hours post dose",40%
same,systemic exposure,[2]; dose of 0.3 mg/kg,6.36 ng/mL
same,inhibition at 1 µM,[3]; [9],~27%
same,inhibition at 1 µM,[3]; [10],~42%
same,inhibition at 3 µM,[3]; [9],~42%
same,inhibition at 3 µM,[3]; [10],~69%
same,absolute lymphocyte count,"arthritis pain; 60 mg daily topical, 7 days",no systemic change in the absolute lymphocyte count
same,safety and tolerability,"arthritis pain; 60 mg daily topical, seven days",safe and well tolerated
same,mean NRS score change from baseline,arthritis pain; Day 3,−1.3±1.54 points
same,numerical rating scale for pain scoring (NRS),arthritis pain; Day 3,5.8±2.12
same,mean NRS score change from baseline,arthritis pain; Day 7,−2.3±2.06 points
same,numerical rating scale for pain scoring (NRS),arthritis pain; Day 7,4.8±2.72
same,positive PGART response,"arthritis pain; all treated participants (n=12), Day 3, 60 mg daily topical",41.7 % participants
same,positive PGART response,"arthritis pain; all treated participants (n=12), Day 7, 60 mg daily topical",58.3 % participants
same,"mean change in pain score, pain felt","arthritis pain; osteoarthritis participants, Day 1 to Day 7, p=0.0153",−1.9±1.46
same,"mean change in pain score, worst pain felt in 24 hours","arthritis pain; osteoarthritis participants, Day 1 to Day 7, p=0.0205",−1.9±1.57
same,positive PGART response,"arthritis pain; participants with osteoarthritis, Day 3",28.6 % participants
same,positive PGART response,"arthritis pain; participants with osteoarthritis, Day 7",57.1 % participants
same,concentration at 7 day,"[4]; read-out: systemic exposure, average",0.79 ng/mL
same,concentration at 7 day,"[4]; read-out: systemic exposure, range",0.42 to 2.44 ng/mL
same,concentration at 3 week,[5],1 to 2.5 ng/mL
same,EASI score and pruritus score,"atopic dermatitis; 60 mg daily topical, 28 days",reduction compared to baseline
same,absolute lymphocyte count,"atopic dermatitis; 60 mg daily topical, 28 days",no systemic change in the absolute lymphocyte count
same,tolerability,"atopic dermatitis; 60 mg daily topical, 28 days",well tolerated
same,lymphopenia,atopic dermatitis; by week 3,no lymphopenia event
same,"proinflammatory cytokines (TNFα, IL1β and IL6)",[6],significant reduction of proinflammatory cytokines
same,adverse side effects,[7]; both cases,No adverse side effects
same,swelling and pain of scratch wounds,"[7]; ointment formulation, one patient",swelling and pain reduced dramatically
same,swelling and blistering of burn wound,"[7]; topical gel formulation, after 10 minutes, one patient",swelling and blistering had visibly reduced dramatically
same,pain of burn wound,"[7]; topical gel formulation, one patient",significant pain relief
same,activity v/s degradation margin,S1P1 receptor,greater than 100
same,reduction in seizures,"[8]; dosed 1 hour prior to kainic acid, p<0.005",70%
same,neuroprotection (hippocampal histology),"[8]; rat, in vivo",neuroprotective
same,"Pain reduction results at Day 7, Incision mediated pain","Incision mediated pain; 3% (G4), Placebo (G3) 0.33",0.11
same,pain relief,"Incision mediated pain; 3% topical Day 1 to Day 7, day 7",67%
